Laboratory results as given in US4886817A, “Imidazolidinones as brain activators” (Tanabe Seiyaku Co., Ltd., priority 1986, dated 1989).

How the values were obtained:
[1] = Gastric juice secretion in pylorus ligated rats; format: in vivo; settings: 30 mg/kg, intraperitoneal, 5 hours after administration
From the text: (§1) In addition, Compound (I) and a salt thereof may have also an inhibitory effect on gastric juice secretion and may be used for therapy and prophylaxy of peptic ulcer. […] Further, the compound of the present invention is low in toxicity and has high safety as pharmaceuticals.

[2] = Survival time of mice under hypobaric hypoxia (closed container, reduced pressure); format: in vivo; settings: 30 mg/kg (p.o.); pressure 165 mmHg
From the text: (§2) The compound (I) of the present invention and a salt thereof are useful as a cerebral activator. More particularly, Compound (I) and a salt thereof can effectively prolong the survival time of mice suffering from KCN-induced cerebral anoxia or hypobaric hypoxia, and show potent protective action against brain ischemia. Compound (I) and a salt thereof can also improve KCN-induced cerebral energy metabolism disorders. Further, Compound (I) and a salt thereof improve scopolamine-induced amnesia, and show potent anticonvulsive, AChE (acetylchline esterase) inhibitory and GABA-mimetic or GABA-potentiative actions. […] Based on these therapeutic effects, Compound (I) and a salt thereof can be used as a cerebral metabolism activator and/or a nootropic drug.

[3] = KCN-induced cerebral energy metabolism disorders; format: in vivo
From the text: as §2

[4] = Spontaneous locomotion in mice which received apomorphine; format: in vivo; settings: 45 mg/kg, oral; apomorphine 0.03 or 0.1 mg/kg, s.c.
From the text: Compound (I) of the present invention and a salt thereof can also be used as antidepressants because it can effectively shorten the immobility time of mice during forced swimming thereof and also increase spontaneous locomotor activity.

Acute toxicity (LD50) = settings: mouse, in vivo; oral, male Std/ddY mice, estimated 7 days after administration
From the text: as §1

[5] = Preventive effect on maximum electroshock-induced convulsion; format: in vivo, male Std/ddY mice; settings: 100 mg/kg, oral, 1 hour before electroshock
From the text: (Preventive effect on maximum electroshock-induced convulsion)
One hour after oral administration of a test compound to male Std/ddY mice, maximum electroshock (AC 900 V, 25 mA, 0.15 second) was delivered to said mice through corneal electrodes from an electrical stimulator.

SMILES | inhibition of tonic extensive convulsion induced by maximum electroshock [5] | further results
O=C1N(C/C=C/C=C/c2ccccc2Cl)CCN1c1ccncc1 [(2E,4E)-1-[5-(2-chlorophenyl)-2,4-pentadienyl]-3-(4-pyridyl)-2-imidazolidinone] |  | decrease in gastric juice secretion [1]: ≥ 42%
O=C1N(C/C=C/c2ccccc2)CCN1c1cccnc1 [(E)-1-cinnamyl-3-(3-pyridyl)-2-imidazolidinone] |  | survival time of mice which suffered from hypobaric hypoxia [2]: significantly prolong the survival time; KCN-induced cerebral metabolism disorders [3]: improve the KCN-induced cerebral metabolism disorders; decrease in energy metabolism-relating substances (ATP, creatine-P, glucose or glycogen in the brain) induced by KCN [3]: inhibit the decrease; spontaneous locomotion in mice which received apomorphine [4]: significant increase; LD50 at 168 h (Acute toxicity (LD50)): > 1500 mg/kg
O=C1N(C/C=C/c2ccc(Cl)cc2)CCN1c1cccnc1 [compound 1, (E)-1-(4-chlorocinnamyl)-3-(3-pyridyl)-2-imidazolidinone] | completely inhibited | 
O=C1N(C/C=C/c2ccc(Cl)cc2)CCN1c1ccncc1 [compound 2, (E)-1-(4-chlorocinnamyl)-3-(4-pyridyl)-2-imidazolidinone] | completely inhibited | 
Cl.O=C1N(C/C=C/c2ccccc2)CCN1c1cccnc1 [compound 3, (E)-1-cinnamyl-3-(3-pyridyl)-2-imidazolidinone hydrochloride] | completely inhibited | decrease in gastric juice secretion [1]: ≥ 42%
O=C1N(C/C=C/c2ccccc2)CCN1c1ncccn1 [compound 4, (E)-1-cinnamyl-3-(2-pyrimidinyl)-2-imidazolidinone] | completely inhibited | 
O=C1N(C/C=C/c2cccc(Cl)c2)CCN1c1ccncc1 [compound 5, (E)-1-(3-chlorocinnamyl)-3-(4-pyridyl)-2-imidazolidinone] | completely inhibited | 
O=C1N(C/C=C/c2ccccc2Cl)CCN1c1ccncc1 [compound 6, (E)-1-(2-chlorocinnamyl)-3-(4-pyridyl)-2-imidazolidinone] | completely inhibited | 
Cc1cccc(/C=C/CN2CCN(c3ccncc3)C2=O)c1 [compound 7, (E)-1-(3-methylcinnamyl)-3-(4-pyridyl)-2-imidazolidinone] | completely inhibited | 
O=C1N(CCC/C=C/c2ccccc2)CCN1c1ccncc1 [compound 8, (E)-1-(5-phenyl-4-pentenyl)-3-(4-pyridyl)-2-imidazolidinone] | completely inhibited | 
O=C1N(C/C=C\c2ccccc2)CCN1c1ccncc1 [compound 9, (Z)-1-cinnamyl-3-(4-pyridyl)-2-imidazolidinone] | completely inhibited | 
